Data reported in US7834164B2 (priority 2006, dated 2010).
“Also recorded” adds a separate entry of the source. Bridge positions count the residues as written; N and C are the ends. Square brackets hold non-standard residues; d marks the D form. Ends that are not written are not given here. Peptide text beside a SMILES is read from it. mPEG 20 kDa = 20 kDa monomethoxy-PEG attached via aldehyde at the N-terminus; hArg = N=C(N)NCCCC[C@H](N)C(=O)O

Legend:
[1] = tested on: IL-2 production in human whole blood; format: cell-based
[2] = tested on: IFN-g production in human whole blood; format: cell-based
[3] = tested on: CD40L on T cells in human whole blood; format: cell-based
[4] = tested on: IL-2R on T cells in human whole blood; format: cell-based
human Kv1.3 [5] = target: T1, human Kv1.3 (Homo sapiens, UniProt P22001); format: cell-based; parameters: host or cells: HEK293
T1 sequence (P22001 whole entry): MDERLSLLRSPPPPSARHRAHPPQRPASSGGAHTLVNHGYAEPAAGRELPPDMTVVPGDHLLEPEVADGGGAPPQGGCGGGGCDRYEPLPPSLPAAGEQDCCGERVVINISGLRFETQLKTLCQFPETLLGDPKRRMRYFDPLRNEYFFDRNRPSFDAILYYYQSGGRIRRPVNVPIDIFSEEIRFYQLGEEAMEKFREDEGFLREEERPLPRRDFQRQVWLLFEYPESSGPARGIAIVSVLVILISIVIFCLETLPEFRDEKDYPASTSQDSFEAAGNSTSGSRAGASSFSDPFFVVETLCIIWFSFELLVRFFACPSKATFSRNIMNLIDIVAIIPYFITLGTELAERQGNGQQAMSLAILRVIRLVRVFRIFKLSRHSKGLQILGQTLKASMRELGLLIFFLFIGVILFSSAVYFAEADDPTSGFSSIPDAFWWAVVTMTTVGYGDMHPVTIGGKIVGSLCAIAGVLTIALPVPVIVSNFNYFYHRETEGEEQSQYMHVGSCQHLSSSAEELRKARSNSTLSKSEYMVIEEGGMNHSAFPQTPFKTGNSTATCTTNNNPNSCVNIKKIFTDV

[6] = tested on: IFNγ production from human PBMCs; format: cell-based
[7] = tested on: IFNγ production from human PBMCs; format: cell-based; remark: listed apart in the source
[8] = tested on: T cell proliferation in human PBMCs; assay: T cell proliferation (3H-thymidine incorporation), anti-CD3/anti-CD28 stimulated PBMCs; format: cell-based; details: aCD3/aCD28 stimulated PBMCs from two normal donors
Excerpt: Inhibition of T cell proliferation following anti-CD3 and anti-CD28 antibody stimulation of PBMCs. PBMC's were previously isolated from normal human donor Leukophoresis packs, purified by density gradient centrifugation (Ficoll Hypaque), cryopreserved in CPZ Cryopreservation Medium Complete (INCELL, MCPZF-100 plus 10% DMSO final). PBMC's were thawed (95% viability), washed, and seeded at 2×10^5 cells per well in culture medium (RPMI medium 1640; GIBCO) supplemented with 10% fetal calf serum, 100 U/ml penicillin, […] streptomycin, 2 mM L-glutamine, 100 μM non-essential amino acids, and 20 μM 2-ME) in 96-well flat-bottom tissue culture plates. Cells were pre-incubated with either anti-human CD32 (FcyRII) blocking antibody (per manufacturers instructions EASY SEP Human Biotin Selection Kit #18553, StemCell Technologies Vancouver, BC) or Fc-L10-ShK (100 nM-0.001 nM final) for 45 min. Fc-L10-ShK (100 nM-0.001 nM final) was then added to the cells containing anti-human CD32 blocking antibody while medium was added to the cells containing Fc-L10-ShK. Both sets were incubated for an additional 45 min before stimulating for 48 hr with aCD3/aCD28 (0.2 ng/ml and 100 ng/ml, respectively). Final assay volume was 200 ul. […] Cells were then harvested onto glass fiber filters and radioactivity was measured in a B-scintillation counter.

human Kv1.3 [9] = target: T1, human Kv1.3; assay: Immunohistochemistry, binding to HEK 293 cells overexpressing human Kv1.3; parameters: expressed in transfected cells; details: 5 μg/ml, fixed cells, confocal microscopy
Description: Immunohistochemistry analysis of Fc-L10-ShK[1-35] binding to HEK 293 cells overexpressing human Kv1.3. HEK 293 cells overexpressing human Kv1.3 (HEK Kv1.3) were obtained from BioFocus plc (Cambridge, UK) and maintained per manufacturer's recommendation. The parental HEK 293 cell line was used as a control. Cells were plated on Poly-D-Lysine 24 well plates (#35-4414; Becton-Dickinson, Bedford, Mass.) and allowed to grow to approximately 70% confluence. HEK KV1.3 were plated at 0.5×10e5 cells/well in 1 ml/well of medium. HEK 293 cells were plated at a density of 1.5×10e5 cells/well in 1 ml/well of medium. Before staining, cells were fixed with formalin (Sigma HT50-1-1 Formalin solution, diluted 1:1 with PBS/0.5% BSA before use) by removing cell growth medium, adding 0.2 ml/well formalin solution and incubating at room temperature for ten minutes. Cells were stained by incubating with 0.2 ml/well of 5 μg/ml Fc-L10-ShK[1-35] in PBS/BSA for 30′ at room temperature. Fc-L10-ShK[1-35] was aspirated and then the cells were washed one time with PBS/0.5% BSA. Detection antibody (Goat F(ab)2 anti-human IgG-phycoerythrin; Southern Biotech Associates, Birmingham, Ala.) was added to the wells at 5 μg/ml in PBS/0.5% BSA and incubated for 30′ at room temperature. Wash cells once with PBS/0.5% BSA and examine using confocal microscopy (LSM 510 Meta Confocal Microscope; Carl Zeiss AG, Germany). […]

human Kv1.3 [10] = target: T1, human Kv1.3; format: binding; parameters: expressed in transfected cells

Molecule: IbTx: BKCa channel inhibitor peptide, purchased from Bachem (QFTDVDCSVSKECWSVCKDLFGVDRGKCMGKKCRCYQ; Definition of Artificial Sequence: Synthetic peptide)
- thapsigargin-induced IL-2 production in human whole blood (in words) [1]: no significant activity
- thapsigargin-induced IFN-g production in human whole blood (in words) [2]: no significant activity
- thapsigargin-induced upregulation of CD40L on T cells in human whole blood (in words) [3]: no significant activity
- thapsigargin-induced upregulation of the IL-2R on T cells in human whole blood (in words) [4]: no significant activity

Molecule: CC[C@H](C)[C@@H]1NC(=O)[C@H](CCCCN)NC(=O)[C@@H](NC(=O)[C@H](CCCCN)NC(=O)[C@@H](NC(=O)[C@H](CC(N)=O)NC(=O)[C@@H](NC(=O)[C@@H](NC(=O)[C@@H](NC(=O)CN)C(C)C)[C@@H](C)CC)[C@@H](C)CC)C(C)C)CSSC[C@@H]2NC(=O)[C@H](CCCCN)NC(=O)CNC(=O)[C@H](Cc3ccccc3)NC(=O)[C@H](CCCNC(=N)N)NC(=O)[C@H](CCSC)NC(=O)CNC(=O)[C@H](C)NC(=O)[C@H](CCCCN)NC(=O)[C@H](CCCCN)NC(=O)[C@@H]3CSSC[C@@H](C(=O)N[C@H](C(=O)N4CCC[C@H]4C(=O)N[C@@H](CCCCN)C(=O)O)[C@@H](C)O)NC(=O)[C@H](Cc4c[nH]cn4)NC(=O)[C@H](CSSC[C@H](NC(=O)[C@H](CCC(N)=O)NC(=O)[C@H](CCCNC(=N)N)NC(=O)[C@H](CO)NC1=O)C(=O)N[C@@H](CC(C)C)C(=O)N[C@@H](CCC(=O)O)C(=O)N1CCC[C@H]1C(=O)N3)NC(=O)[C@H](CCCCN)NC(=O)CNC(=O)[C@H](CC(N)=O)NC(=O)[C@H](C)NC2=O [OSK1[Ala-29]] (H-GVIINVKCKISRQCLEPCKKAGMRFGKCANGKCHCTPK-OH; disulfide 8-28, 14-33, 18-35)
- potency in blocking the cytokine response relative to cyclosporin A [1]: several orders of magnitude more potent

Molecule: SEQ ID No: 4989: OSK1 analog without beta strand 1 (labeled des 1-7), Table 42 (CKISRQCLKPCKDAGMRFGKCMNGKCHC-NH2; ends and bridges not checked)
- blockade of the whole blood cytokine response (IL-2 and IFNg; in words) [1]: retain activity in blocking inflammation

Molecule: Fc-L10-OSK1[K7S]: Fc-L10 fusion of OSK1 with lysine to serine at position 7
- hKv1.1/hKv1.3 (human Kv1.3 [5]): 269

Molecule: Fc-L10-OSK1[E16K,K20D]: Fc-L10 fusion of OSK1 with E16K and K20D substitutions (GVIINVKCKISRQCL[hArg]PCKDAGMRFGKCMNGKCACGGG; cysteine pairing not given here; also: Fc-L10 fusion)
- fold difference in Kv1.3 potency compared to Fc-L10-OSK1 (human Kv1.3 [5]): 1.3 fold
- hKv1.1/hKv1.3 (human Kv1.3 [5]): 403

Molecule: Fc-L10-ShK[1-35]: Fc region of human IgG1 fused via L10 linker to Kv1.3 inhibitor peptide ShK[1-35]
- extent of inhibition of IFNγ production [6]: complete inhibition
- extent of inhibition of IFNg production [7]: nearly complete inhibition
- inhibition of T cell proliferation [8]: potently inhibits proliferation of T cells in a dose-dependent manner
- thapsigargin-induced upregulation of CD40L on T cells in human whole blood (in words) [3]: suppressed
- thapsigargin-induced upregulation of the IL-2R on T cells in human whole blood (in words) [4]: suppressed
- binding to Kv1.3 overexpressing versus untransfected HEK 293 cells (human Kv1.3 [9]): binds to Kv1.3 overexpressing HEK 293 cells but shows little binding to untransfected cells
- response in enzyme-immunoassay on fixed HEK 293 cells stably transfected with human Kv1.3 (human Kv1.3 [10]): dose-dependent increase in response

Molecule: Fc-L10-OSK1[K7S,E16K,K20D]: Fc-L10 fusion of OSK1 with K7S, E16K and K20D substitutions
- hKv1.1/hKv1.3 (human Kv1.3 [5]): 12

Molecule: N-Terminally PEGylated-Des-Arg1-ShK: folded ShK[2-35] N-terminally mono-PEGylated with 20 kDa MeO-PEG-aldehyde by reductive amination ({mPEG 20 kDa}-SCIDTIPKSRCTAFQCKHSMKYRLSFCRKTCGTC; also: folded, disulfides present but pairing not given here)
- block of human Kv1.3 current (in words) (human Kv1.3 [5]): active in blocking human Kv1.3

Molecule: Fc-L10-ShK[2-35]: human IgG1 Fc fused via 10 amino acid linker to ShK[2-35]
- thapsigargin-induced IL-2 production in human whole blood (in words) [1]: suppressed
- thapsigargin-induced IFN-g production in human whole blood (in words) [2]: suppressed

B1: FcLoop-L2-ShK-L2: ShK inserted into human IgG1 Fc loop with Gly linkers (protein)
chain: MDKTHTCPPCPAPELLGGPSVFLFPPKPKDTLMISRTPEVTCVVVDVSHEDPEVKFNWYVDGVEVHNAKTKPREEQYNSTYRVVSVLTVLHQDWLNGKEYKCKVSNKALPAPIEKTISKAKGQPREPQVYTLPPSRDELGGRSCIDTIPKSRCTAFQCKHSMKYRLSFCRKTCGTCGGTKNQVSLTCLVKGFYPSDIAVEWESNGQPENNYKTTPPVLDSDGSFFLYSKLTVDKSRWQQGNVFSCSVMHEALHNHYTQKSLSLSPGK
modifications: Definition of Artificial Sequence: Synthetic protein
- blockade of the whole blood cytokine response (IL-2 and IFNg; in words) [1]: potent blockade

B2: PEGylated CH2-OSK1: CH2-OSK1 fusion protein mono-PEGylated with 20 kD methoxy-PEG-aldehyde (conjugate)
chain: MGGHHHHHHGGGPSVFLFPPKPKDTLMISRTPEVTCVVVDVSHEDPEVKFNWYVDGVEVHNAKTKPREEQYNSTYRVVSVLTVLHQDWLNGKEYKCKVSNKALPAPIEKTISGGGGSGGGGSGVIINVKCKISRQCLEPCKKAGMRFGKCMNGKCHCTPK
- blockade of the whole blood cytokine response (IL-2 and IFNg; in words) [1]: active in blocking inflammation; also recorded: modest blockade

B3: FcLoop-L2-OsK1-L2: OsK1 inserted into human IgG1 Fc loop between Leu139 and Thr140 with Gly linkers (protein)
chain: MDKTHTCPPCPAPELLGGPSVFLFPPKPKDTLMISRTPEVTCVVVDVSHEDPEVKFNWYVDGVEVHNAKTKPREEQYNSTYRVVSVLTVLHQDWLNGKEYKCKVSNKALPAPIEKTISKAKGQPREPQVYTLPPSRDELGGGVIINVKCKISRQCLEPCKKAGMRFGKCMNGKCHCTPKGGTKNQVSLTCLVKGFYPSDIAVEWESNGQPENNYKTTPPVLDSDGSFFLYSKLTVDKSRWQQGNVFSCSVMHEALHNHYTQKSLSLSPGK
modifications: Definition of Artificial Sequence: Synthetic protein
- blockade of the whole blood cytokine response (IL-2 and IFNg; in words) [1]: potent blockade
